From US20070128217A1 (priority 2003, published 2007)

Tests used:
[1] = system: control sera (pooled serum of ten healthy LUMC hospital workers; commercial negative donor pooled serum from the Dutch bloodbank); format: binding, human; parameters: Binding of Control serum LUMC to linear peptides / Binding of Control serum Blood-bank to linear peptides / Binding of Control serum LUMC to looped peptides / Binding of Control Serum Blood-Bank to Looped peptides / Binding of Control serum LUMC to linear peptides of the protein M of SARS-CoV Urbani / Binding of Control serum Blood-bank to linear peptides of the protein M of SARS-CoV Urbani / Binding of Control serum LUMC to looped peptides of the protein M of SARS-CoV Urbani / Binding of Control Serum Blood-Bank to Looped peptides of the protein M of SARS-CoV Urbani: unit not given here
[2] = system: recombinant human anti-SARS-CoV antibody 03-018; format: binding; parameters: Binding of antibody 03-018 to linear peptides of the N protein of SARS-CoV Urbani / Binding of antibody 03-018 to looped/cyclic peptides of the N protein of SARS-CoV Urbani: unit not given here
[3] = system: rabbit serum obtained by immunizing a rabbit with the SARS-CoV strain Frankfurt 1; format: binding; parameters: Binding of a rabbit serum to linear peptides / Binding of a rabbit serum to looped peptides / Rabbit serum linear peptides / Rabbit serum looped peptides / Binding of a rabbit serum to linear peptides of protein N of SARS-CoV Urbani (Rabbit serum linear peptides) / Binding of a rabbit serum to looped/cyclic peptides of protein N of SARS-CoV Urbani (Rabbit serum looped peptides): unit not given here
[4] = system: antibodies in sera from SARS patients (sera 1a, 1b, 2, 6, 37, 62, London, SARS-yellow, SARS-green); format: binding, human; parameters: Binding of serum 6 to linear peptides of protein X1 of SARS-CoV Urbani / Binding of serum 37 to linear peptides of protein X1 of SARS-CoV Urbani / Binding of serum 6 to looped/cyclic peptide (PEPSCAN-ELISA) / Binding of serum 37 to looped/cyclic peptide (PEPSCAN-ELISA) / Binding of serum 37 to looped/cyclic peptides of protein X1 of SARS-CoV Urbani / Binding of serum 6 to linear peptides of protein X2 / Binding of serum 37 to linear peptides of protein X2 / Binding of serum 37 to looped/cyclic peptides of protein X2 of SARS-CoV Urbani / Binding of serum 6 to linear peptides of protein M of SARS-CoV Urbani / Binding of serum 37 to linear peptides of protein M of SARS-CoV Urbani / Binding of serum 6 to looped/cyclic peptides of protein M of SARS-CoV Urbani / Binding of serum 37 to looped/cyclic peptides of protein M of SARS-CoV Urbani / Binding of serum 6 to linear peptides of protein X3 of SARS-CoV Urbani / Binding of serum 37 to linear peptides of protein X3 of SARS-CoV Urbani / Binding of serum 37 to looped/cyclic peptides of protein X3 of SARS-CoV Urbani / Binding of serum 6 to linear peptides of protein X4 of SARS-CoV Urbani / Binding of serum 37 to linear peptides of protein X4 of SARS-CoV Urbani / Binding of serum 37 to looped/cyclic peptides of protein X4 of SARS-CoV Urbani / Binding of serum 6 to linear peptides of protein X5 of SARS-CoV Urbani / Binding of serum 37 to linear peptides of protein X5 of SARS-CoV Urbani / Binding of serum 37 to looped/cyclic peptides of protein X5 of SARS-CoV Urbani / Binding of serum 6 to linear peptides of protein N of SARS-CoV Urbani / Binding of serum 37 to linear peptides of protein N of SARS-CoV Urbani / Binding of serum 6 to linear peptide (PEPSCAN-ELISA) / Binding of serum 1a to looped/cyclic peptides of protein N of SARS-CoV Urbani / Binding of serum 1b to looped/cyclic peptides of protein N of SARS-CoV Urbani / Binding of serum 2 to looped/cyclic peptides of protein N of SARS-CoV Urbani / Binding of serum 6 to looped/cyclic peptides of protein N of SARS-CoV Urbani / Binding of serum 37 to looped/cyclic peptides of protein N of SARS-CoV Urbani / Binding of serum 62 to looped/cyclic peptides of protein N of SARS-CoV Urbani / Binding of serum London to looped/cyclic peptides of protein N of SARS-CoV Urbani / Binding of serum SARS-green to looped/cyclic peptides of protein N of SARS-CoV Urbani: unit not given here

Sequence	Binding of antibody 03-018 to linear peptides of the N protein of SARS-CoV Urbani [2]	Binding of antibody 03-018 to looped/cyclic peptides of the N protein of SARS-CoV Urbani [2]	Binding of a rabbit serum to linear peptides of protein N of SARS-CoV Urbani (Rabbit serum linear peptides) [3]	Binding of a rabbit serum to looped/cyclic peptides of protein N of SARS-CoV Urbani (Rabbit serum looped peptides) [3]	Binding of serum 1a to linear peptides of protein N of SARS-CoV Urbani [4]	Binding of serum 1a to looped/cyclic peptides of protein N of SARS-CoV Urbani [4]	Binding of serum 1b to linear peptides of protein N of SARS-CoV Urbani [4]	Binding of serum 1b to looped/cyclic peptides of protein N of SARS-CoV Urbani [4]	Binding of serum 2 to linear peptides of protein N of SARS-CoV Urbani [4]	Binding of serum 2 to looped/cyclic peptides of protein N of SARS-CoV Urbani [4]	Binding of serum 6 to linear peptides of protein N of SARS-CoV Urbani [4]	Binding of serum 6 to looped/cyclic peptides of protein N of SARS-CoV Urbani [4]	Binding of serum 37 to linear peptides of protein N of SARS-CoV Urbani [4]	Binding of serum 37 to looped/cyclic peptides of protein N of SARS-CoV Urbani [4]	Binding of serum 62 to linear peptides of protein N of SARS-CoV Urbani [4]	Binding of serum 62 to looped/cyclic peptides of protein N of SARS-CoV Urbani [4]	Binding of serum London to linear peptides of protein N of SARS-CoV Urbani [4]	Binding of serum London to looped/cyclic peptides of protein N of SARS-CoV Urbani [4]	Binding of serum SARS-green to linear peptides of protein N of SARS-CoV Urbani [4]	Binding of serum SARS-green to looped/cyclic peptides of protein N of SARS-CoV Urbani [4]	also measured
AQFAPSASAFFGMSR	0.1	0.3	0.1	0.7	0.2	0.3	0.1	0.2	0.1	0.6	0.1	0.5	0.5	0.8	0.4	0.6	0.4	2.1	0.1	0.2	Control Serum Blood-Bank Looped peptides [1]: 0.8; Control serum Blood-bank linear peptides [1]: 0.7; Control serum LUMC linear peptides [1]: 0.5; Control serum LUMC looped peptides [1]: 0.6; Binding of serum SARS-yellow to linear peptides of protein N of SARS-CoV Urbani [4]: 0.6; Binding of serum SARS-yellow to looped/cyclic peptides of protein N of SARS-CoV Urbani [4]: 0.4
AQPLPQRQKKQPTVT	0.1	0.1	0.2	0.2	0.3	0.2	0.2	0.1	0.4	0.2	0.4	0.1	0.7	0.3	0.8	0.2	1.6	0.2	0.3	0.3	Control Serum Blood-Bank Looped peptides [1]: 0.4; Control serum Blood-bank linear peptides [1]: 0.6; Control serum LUMC linear peptides [1]: 0.7; Control serum LUMC looped peptides [1]: 0.3; Binding of serum SARS-yellow to linear peptides of protein N of SARS-CoV Urbani [4]: 1.4; Binding of serum SARS-yellow to looped/cyclic peptides of protein N of SARS-CoV Urbani [4]: 0.2
ARPKQRRPQGLPNNT	0.1	0.2	0.2	0.4	0.2	0.2	0.1	0.1	0.3	0.4	0.2	0.2	0.7	0.5	0.6	0.5	0.5	0.3	0.5	0.2	Binding of Control Serum Blood-Bank to Looped peptides [1]: 0.6; Binding of Control serum Blood-bank to linear peptides [1]: 0.6; Binding of Control serum LUMC to linear peptides [1]: 0.6; Binding of Control serum LUMC to looped peptides [1]: 0.5; Binding of serum SARS-yellow to linear peptides of protein N of SARS-CoV Urbani [4]: 0.5; Binding of serum SARS-yellow to looped/cyclic peptides of protein N of SARS-CoV Urbani [4]: 0.2
